The values below come from ChEMBL document CHEMBL1144802, “Cytotoxic xanthones from Psorospermum molluscum from the Madagascar rain forest” (J Nat Prod, 2008).

SMILES strings stand for the structures.

One experiment concerns HCT-116. Description: Cytotoxicity against human HCT116 cells. Type of experiment: functional, cell-based.
The test system of the next experiment is ABAE. Description: Cytotoxicity against bovine ABAE cells. The experiment is classed as functional, cell-based, Bos taurus.
Another experiment relates to A2780. Description: Cytotoxicity against human A2780 cells. The experiment is classed as functional, cell-based.
For a further experiment, the system named is SK-BR-3. Description: Cytotoxicity against human SKBR3 cells. Type of experiment: functional, cell-based.

As usually defined, the IC50 is the concentration at which inhibition is half-maximal. The low end stands for higher potency, the high end for lower potency. As for `O=c1c2c(O)cccc2oc2ccc3c(c12)CC(C(O)(CO)CCl)O3` (configuration not stated) [PSOROXANTHIN CHLOROHYDRIN], the IC50 with HCT-116 turned out to be 0.068 µM; with ABAE, 0.004 µM; in the experiment with A2780 it was 0.042 µM; in the experiment on SK-BR-3, 2 µM.
Consider `O=c1c2c(O)cccc2oc2ccc3c(c12)CC(C1(CO)CO1)O3` (configuration not stated) [PSOROXANTHIN], for which the IC50 worked out at 1 µM in the experiment on HCT-116, 0.102 µM in the experiment on ABAE and 0.33 µM with A2780.
